For 28 compounds, melting point, pest or weed control and inhibition results are on record in patent US20180319753A1, “MICROBIOCIDAL OXADIAZOLE DERIVATIVES” (SYNGENTA PARTICIPATIONS AG, priority 2015, published 2018).

Where only a bound is given, the exact number is not on record here.

The test system of one data set is Phakopsora pachyrhizi. In words: Phakopsora pachyrhizi / soybean / leaf disc preventative (Asian soybean rust). In kind it is in vivo. Conditions: foliar, 200 ppm in the applied formulation, soybean leaf disks, inoculated one day after application, assessed 12 to 14 days after application, read-out: disease control compared to untreated control leaf disks. The procedure: Leaf disks or leaf segments of various plant species are cut from plants grown in a greenhouse. The cut leaf disks or segments are placed in multiwell plates (24-well format) onto water agar. The leaf disks are sprayed with a test solution before (preventative) or after (curative) inoculation. Compounds to be tested are prepared as DMSO solutions (max. 10 mg/ml) which are diluted to the appropriate concentration with 0.025% Tween20 just before spraying. The inoculated leaf disks or segments are incubated under defined conditions (temperature, relative humidity, light, etc.) according to the respective test system. A single evaluation of disease level is carried out 3 to 14 days after inoculation, depending on the pathosystem. Percent disease control relative to the untreated check leaf disks or segments is then calculated.
Soybean leaf disks are placed on water agar in multiwell plates (24-well format) and sprayed with the formulated test compound diluted in water. One day after application leaf discs are inoculated by spraying a spore suspension on the lower leaf surface. After an incubation period in a climate cabinet of 24-36 hours in darkness at 20° C. and 75% rh leaf disc are kept at 20° C. with 12 h light/day and 75% rh. The activity of a compound is assessed as percent disease control compared to untreated when an appropriate level of disease damage appears in untreated check leaf disks (12 to 14 days after application).
The following compounds at 200 ppm in the applied formulation give at least 80% disease control in this test when compared to untreated control leaf disks under the same conditions, which show extensive disease development.

Data set [1] has as its system Glomerella lagenarium (Colletotrichum lagenarium). In words: Glomerella lagenarium (Colletotrichum lagenarium) liquid culture / cucumber / preventative (anthracnose). It counts as cell-based. The following applies: Colletotrichum orbiculare; 20 ppm in the applied formulation; liquid culture in PDB, 24° C.; 3 to 4 days after application; read-out: disease control compared to untreated control (inhibition of growth measured photometrically). Here is the method:
Mycelia fragments or conidia suspensions of a fungus prepared either freshly from liquid cultures of the fungus or from cryogenic storage, are directly mixed into nutrient broth. DMSO solutions of the test compound (max. 10 mg/ml) are diluted with 0.025% Tween20 by a factor of 50 and 10 μl of this solution is pipetted into a microtiter plate (96-well format). The nutrient broth containing the fungal spores/mycelia fragments is then added to give an end concentration of the tested compound. The test plates are incubated in the dark at 24° C. and 96% relative humidity. The inhibition of fungal growth is determined photometrically after 2 to 7 days, depending on the pathosystem, and percent antifungal activity relative to the untreated check is calculated.
Conidia of the fungus from cryogenic storage are directly mixed into nutrient broth (PDB—potato dextrose broth). After placing a (DMSO) solution of test compound into a microtiter plate (96-well format), the nutrient broth containing the fungal spores is added. The test plates are incubated at 24° C. and the inhibition of growth is measured photometrically 3 to 4 days after application.
The following compounds at 20 ppm in the applied formulation give at least 80% disease control in this test when compared to untreated control under the same conditions, which show extensive disease development.

In turn, `FC(F)(F)c1nc(-c2ccc(SCc3ccccc3)cc2)no1` [Compound 1.3, 3-(4-benzylsulfanylphenyl)-5-(trifluoromethyl)-1,2,4-oxadiazole] showed a melting point of 83 to 87 °C. On to `FC(F)(F)CSc1ccc(-c2noc(C(F)(F)F)n2)cc1` [Compound 1.4, 3-[4-(2,2,2-trifluoroethylsulfanyl)phenyl]-5-(trifluoromethyl)-1,2,4-oxadiazole], for which, in the data set on Phakopsora pachyrhizi, the pest or weed control at 200 ppm was no less than 80%. As for `Fc1cccc(F)c1CSc1ccc(-c2noc(C(F)(F)F)n2)cc1` [Compound 1.6, 3-[4-[(2,6-difluorophenyl)methylsulfanyl]phenyl]-5-(trifluoromethyl)-1,2,4-oxadiazole], in the data set with Phakopsora pachyrhizi, the pest or weed control at 200 ppm was no less than 80%.

As for `Fc1ccc(Sc2ccc(-c3noc(C(F)(F)F)n3)cc2)cc1` [Compound 1.9, 3-[4-(4-fluorophenyl)sulfanylphenyl]-5-(trifluoromethyl)-1,2,4-oxadiazole], the melting point was 64 to 67 °C. Besides, the pest or weed control at 200 ppm with Phakopsora pachyrhizi is no less than 80%.

Consider `COc1ccccc1Sc1ccc(-c2noc(C(F)(F)F)n2)cc1` [Compound 1.11, 3-[4-(2-methoxyphenyl)sulfanyl-phenyl]-5-(trifluoromethyl)-1,2,4-oxadiazole], for which the pest or weed control at 200 ppm in the data set with Phakopsora pachyrhizi is no less than 80%. `FC(F)(F)c1nc(-c2ccc(CSc3ccccc3)cc2)no1` [Compound 1.13, 3-[4-(phenylsulfanylmethyl)phenyl]-5-(trifluoromethyl)-1,2,4-oxadiazole] displayed a melting point of 86 to 91 °C. Moreover, the pest or weed control at 200 ppm in the data set on Phakopsora pachyrhizi is no less than 80%. On to `CC(C)(C)Sc1ccc(-c2noc(C(F)(F)F)n2)cc1` [Compound 1.16, 3-(4-tert-butylsulfanylphenyl)-5-(trifluoromethyl)-1,2,4-oxadiazole], for which the inhibition at 20 ppm in data set [1] was no less than 80%. Turning to `Cc1ccccc1Sc1ccc(-c2noc(C(F)(F)F)n2)cc1` [Compound 1.17, 3-[4-(o-tolylsulfanyl)phenyl]-5-(trifluoromethyl)-1,2,4-oxadiazole], the pest or weed control at 200 ppm in the data set on Phakopsora pachyrhizi was no less than 80%. Same read-out and setting: in the case of `FC(F)(F)c1nc(-c2ccc(Sc3ccccc3Cl)cc2)no1` [Compound 1.18, 3-[4-(2-chlorophenyl)sulfanylphenyl]-5-(trifluoromethyl)-1,2,4-oxadiazole] it was no less than 80%. Turning to `Cc1ccccc1Sc1ccc(-c2noc(C(F)(F)F)n2)cn1` [Compound 1.19, 3-[6-(o-tolylsulfanyl)-3-pyridyl]-5-(trifluoromethyl)-1,2,4-oxadiazole], in data set [1], the inhibition at 20 ppm was no less than 80%. With `Fc1ccccc1Sc1ccc(-c2noc(C(F)(F)F)n2)cn1` [Compound 1.20, 3-[6-(2-fluorophenyl)sulfanyl-3-pyridyl]-5-(trifluoromethyl)-1,2,4-oxadiazole], the pest or weed control at 200 ppm in the data set on Phakopsora pachyrhizi was no less than 80%. In addition, in data set [1], the inhibition at 20 ppm is no less than 80%. On to `FC(F)(F)c1nc(-c2ccc(SCc3ccccc3)nc2)no1` [Compound 1.21, 3-(6-benzylsulfanyl-3-pyridyl)-5-(trifluoromethyl)-1,2,4-oxadiazole], for which the melting point lay in the range of 66 to 68 °C. Further, in data set [1], the inhibition at 20 ppm is no less than 80%. On to `Cc1cc(-c2noc(C(F)(F)F)n2)ccc1SCc1ccccc1` [Compound 1.22, 3-(4-benzylsulfanyl-3-methyl-phenyl)-5-(trifluoromethyl)-1,2,4-oxadiazole], for which the melting point lay within 66 to 72 °C. `Fc1cc(-c2noc(C(F)(F)F)n2)cc(F)c1CSc1ccccc1` [Compound 1.27, 3-[3,5-difluoro-4-(phenylsulfanylmethyl)phenyl]-5-(trifluoromethyl)-1,2,4-oxadiazole] returned a melting point of 50 to 55 °C. In addition, the inhibition at 20 ppm in data set [1] was no less than 80%. `[O-][S+](Cc1ccccc1)c1ccc(-c2noc(C(F)(F)F)n2)cc1` (stereo not shown) [Compound 2.4, 3-(4-benzylsulfinylphenyl)-5-(trifluoromethyl)-1,2,4-oxadiazole] returned a melting point of 178 to 181 °C. Moreover, the inhibition at 20 ppm in data set [1] is no less than 80%. In the case of `[O-][S+](c1ccc(-c2noc(C(F)(F)F)n2)cc1)c1ccccc1C(F)(F)F` (stereo not shown) [Compound 2.21, 5-(trifluoromethyl)-3-[4-[2-(trifluoromethyl)phenyl]sulfinylphenyl]-1,2,4-oxadiazole], the melting point lay in the range of 80 to 86 °C. Further, the pest or weed control at 200 ppm in the data set with Phakopsora pachyrhizi was no less than 80%. For `[O-][S+](Cc1ccccc1)c1ccc(-c2noc(C(F)(F)F)n2)cn1` (stereo not shown) [Compound 2.27, 3-(6-benzylsulfinyl-3-pyridyl)-5-(trifluoromethyl)-1,2,4-oxadiazole], the melting point fell in the range of 122 to 125 °C. Moreover, in data set [1], the inhibition at 20 ppm is no less than 80%. On to `[O-][S+](Cc1ccc(-c2noc(C(F)(F)F)n2)c(F)c1)c1ccccc1` (stereo not shown) [Compound 2.30, 3-[4-(benzenesulfinylmethyl)-2-fluoro-phenyl]-5-(trifluoromethyl)-1,2,4-oxadiazole], for which the melting point fell in the range of 149 to 156 °C. Consider `O=S(=O)(c1ccc(-c2noc(C(F)(F)F)n2)cc1)c1ccc(F)cc1F` [Compound 3.4, 3-[4-(2,4-difluorophenyl)sulfonyl-phenyl]-5-(trifluoromethyl)-1,2,4-oxadiazole], for which, in the data set with Phakopsora pachyrhizi, the pest or weed control at 200 ppm is no less than 80%. In data set [1], the inhibition at 20 ppm is no less than 80%. Regarding `O=S(=O)(CC(F)(F)F)c1ccc(-c2noc(C(F)(F)F)n2)cc1` [Compound 3.5, 3-[4-(2,2,2-trifluoroethylsulfonyl)phenyl]-5-(trifluoromethyl)-1,2,4-oxadiazole], the melting point was in the range of 117 to 122 °C. Moreover, the inhibition at 20 ppm in data set [1] is no less than 80%.

Regarding `Cc1ccc(C)c(S(=O)(=O)c2ccc(-c3noc(C(F)(F)F)n3)cc2)c1` [Compound 3.6, 3-[4-(2,5-dimethylphenyl)sulfonyl-phenyl]-5-(trifluoromethyl)-1,2,4-oxadiazole], the melting point lay in the range of 118 to 125 °C. For the same compound, in data set [1], the inhibition at 20 ppm is no less than 80%. Taken in the same sequence, the figures for `Cc1cc(-c2noc(C(F)(F)F)n2)ccc1S(=O)(=O)c1ccccc1` [Compound 3.8, 3-[4-(benzenesulfonyl)-3-methyl-phenyl]-5-(trifluoromethyl)-1,2,4-oxadiazole] were 117 to 124 °C and no less than 80%. In turn, `O=S(=O)(Cc1ccc(-c2noc(C(F)(F)F)n2)cc1)c1ccccc1F` [Compound 3.11, 3-[4-[(2-fluorophenyl)sulfonylmethyl]phenyl]-5-(trifluoromethyl)-1,2,4-oxadiazole] yielded a melting point of 150 to 154 °C. Besides, the pest or weed control at 200 ppm in the data set with Phakopsora pachyrhizi was no less than 80%. The compound `CC(C)(C)S(=O)(=O)c1ccc(-c2noc(C(F)(F)F)n2)cc1` [Compound 3.13, 3-(4-tert-butylsulfonylphenyl)-5-(trifluoromethyl)-1,2,4-oxadiazole] registered a melting point of 133 to 136 °C. In data set [1], the inhibition at 20 ppm was no less than 80%. In the case of `CCC(C)CS(=O)(=O)c1ccc(-c2noc(C(F)(F)F)n2)cc1` (stereo not shown) [Compound 3.15, 3-[4-(2-methylbutylsulfonyl)phenyl]-5-(trifluoromethyl)-1,2,4-oxadiazole], the melting point was 75 to 80 °C. Further, the inhibition at 20 ppm in data set [1] was no less than 80%. The compound `O=S(=O)(Cc1ccc(-c2noc(C(F)(F)F)n2)c(F)c1)c1ccccc1` [Compound 3.22, 3-[4-(benzenesulfonylmethyl)-2-fluoro-phenyl]-5-(trifluoromethyl)-1,2,4-oxadiazole] registered a melting point of 172 to 178 °C. For the same compound, the pest or weed control at 200 ppm in the data set on Phakopsora pachyrhizi was no less than 80%. On the same counts, the results for `O=S(=O)(Cc1ccc(-c2noc(C(F)(F)F)n2)c(F)c1F)c1ccccc1` [Compound 3.23, 3-[4-(benzenesulfonylmethyl)-2,3-difluoro-phenyl]-5-(trifluoromethyl)-1,2,4-oxadiazole] are 187 to 191 °C and no less than 80%.

Take `O=S(=O)(Cc1c(F)cc(-c2noc(C(F)(F)F)n2)cc1F)c1ccccc1` [Compound 3.24, 3-[4-(benzenesulfonylmethyl)-3,5-difluoro-phenyl]-5-(trifluoromethyl)-1,2,4-oxadiazole]: the melting point lay within 135 to 140 °C. Moreover, the pest or weed control at 200 ppm with Phakopsora pachyrhizi was no less than 80%.
